The source made the active and inactive calls. The rule behind the calls is not given here.
System: CCRIS mutagenicity, Ames/micronucleus/aberration tests
Assay: CCRIS mutagenicity studies
[1] = Test System: AMES SALMONELLA TYPHIMURIUM, Strain/Indicator: TA98, Metabolic Activation: NONE, Method: PREINCUBATION

Q: O=C1C=CC(=O)C(c2ccccc2)=C1 was tested. Which mutagenic call [1] did it give?
A: Its mutagenic call is “inactive; negative”.

Q: And the mutagenic call (Test System: AMES SALMONELLA TYPHIMURIUM, Strain/Indicator: TA98, Metabolic Activation: RAT, LIVER, S-9, PHENOBARBITAL AND 5,6-BENZOFLAVONE, Method: PREINCUBATION)?
A: The mutagenic call was “inactive; negative”.

Q: And the mutagenic call (Test System: AMES SALMONELLA TYPHIMURIUM, Strain/Indicator: TA100, Metabolic Activation: NONE, Method: PREINCUBATION)?
A: Its mutagenic call is “inactive; negative”.

Q: And the mutagenic call (Test System: AMES SALMONELLA TYPHIMURIUM, Strain/Indicator: TA100, Metabolic Activation: RAT, LIVER, S-9, PHENOBARBITAL AND 5,6-BENZOFLAVONE, Method: PREINCUBATION)?
A: Its mutagenic call is “inactive; negative”.

Q: What about the mutagenic call (Test System: AMES SALMONELLA TYPHIMURIUM, Strain/Indicator: TA102, Metabolic Activation: NONE, Method: PREINCUBATION) of the same molecule?
A: Its mutagenic call is “inactive; negative”.

Q: And the mutagenic call (Test System: AMES SALMONELLA TYPHIMURIUM, Strain/Indicator: TA102, Metabolic Activation: RAT, LIVER, S-9, PHENOBARBITAL AND 5,6-BENZOFLAVONE, Method: PREINCUBATION)?
A: Its mutagenic call is “inactive; negative”.

Q: And the mutagenic call (Test System: AMES SALMONELLA TYPHIMURIUM, Strain/Indicator: TA104, Metabolic Activation: NONE, Method: PREINCUBATION)?
A: The mutagenic call was “inactive; negative”.

Q: What about the mutagenic call (Test System: AMES SALMONELLA TYPHIMURIUM, Strain/Indicator: TA104, Metabolic Activation: RAT, LIVER, S-9, PHENOBARBITAL AND 5,6-BENZOFLAVONE, Method: PREINCUBATION) of the same molecule?
A: The mutagenic call was “inactive; negative”.

Q: And the mutagenic call (Test System: AMES SALMONELLA TYPHIMURIUM, Strain/Indicator: TA2637, Metabolic Activation: NONE, Method: PREINCUBATION)?
A: Its mutagenic call is “inactive; negative”.

Q: What about the mutagenic call (Test System: AMES SALMONELLA TYPHIMURIUM, Strain/Indicator: TA2637, Metabolic Activation: RAT, LIVER, S-9, PHENOBARBITAL AND 5,6-BENZOFLAVONE, Method: PREINCUBATION) of the same molecule?
A: Its mutagenic call is “inactive; negative”.

Q: And the mutagenic call (Test System: CHINESE HAMSTER V-79, Strain/Indicator: V-79 (HGPRT)/6-THIOGUANINE, Metabolic Activation: NONE)?
A: The mutagenic call was “inactive; negative”.

Q: Which results are given for C/C=C(\Cl)C1=C(Cl)C(=O)[C@]23C[C@H]2C(C)(C)O[C@]3(O)C1=O?
A: mutagenic call (Test System: AMES SALMONELLA TYPHIMURIUM, Strain/Indicator: TA97, Metabolic Activation: NONE): inactive; negative; mutagenic call (Test System: AMES SALMONELLA TYPHIMURIUM, Strain/Indicator: TA98, Metabolic Activation: NONE): inactive; negative; mutagenic call (Test System: AMES SALMONELLA TYPHIMURIUM, Strain/Indicator: TA100, Metabolic Activation: NONE): active; positive; mutagenic call (Test System: AMES SALMONELLA TYPHIMURIUM, Strain/Indicator: TA102, Metabolic Activation: NONE): active; positive

Q: Which mutagenic call (Test System: AMES SALMONELLA TYPHIMURIUM, Strain/Indicator: TA100, Metabolic Activation: NONE, Method: FLASK ASSAY) does the source give for CC1(C)CO1 here?
A: Its mutagenic call is “active; positive”.

Q: And the mutagenic call (Test System: AMES SALMONELLA TYPHIMURIUM, Strain/Indicator: TA100, Metabolic Activation: NONE, Method: FLASK VAPORIZATION)?
A: Its mutagenic call is “active; positive”.

Q: And the mutagenic call (Test System: AMES SALMONELLA TYPHIMURIUM, Strain/Indicator: TA100, Metabolic Activation: RAT, LIVER, S-9, AROCLOR 1254, Method: FLASK ASSAY)?
A: Its mutagenic call is “active; positive”.

Q: What about the mutagenic call (Test System: AMES SALMONELLA TYPHIMURIUM, Strain/Indicator: TA100, Metabolic Activation: RAT, LIVER, S-9, AROCLOR 1254, Method: FLASK VAPORIZATION) of the same molecule?
A: The mutagenic call was “active; positive”.

Q: And the mutagenic call (Test System: AMES SALMONELLA TYPHIMURIUM, Strain/Indicator: TA102, Metabolic Activation: NONE, Method: FLASK ASSAY)?
A: The mutagenic call was “active; positive”.

Q: What about the mutagenic call (Test System: AMES SALMONELLA TYPHIMURIUM, Strain/Indicator: TA102, Metabolic Activation: RAT, LIVER, S-9, AROCLOR 1254, Method: FLASK ASSAY) of the same molecule?
A: Its mutagenic call is “active; positive”.

Q: What about the mutagenic call (Test System: AMES SALMONELLA TYPHIMURIUM, Strain/Indicator: TA1535, Metabolic Activation: NONE, Method: FLASK ASSAY) of the same molecule?
A: The mutagenic call was “active; positive”.

Q: What about the mutagenic call (Test System: AMES SALMONELLA TYPHIMURIUM, Strain/Indicator: TA1535, Metabolic Activation: NONE, Method: FLASK VAPORIZATION) of the same molecule?
A: Its mutagenic call is “active; positive”.

Q: And the mutagenic call (Test System: AMES SALMONELLA TYPHIMURIUM, Strain/Indicator: TA1535, Metabolic Activation: RAT, LIVER, S-9, AROCLOR 1254, Method: FLASK ASSAY)?
A: The mutagenic call was “active; positive”.

Q: And the mutagenic call (Test System: AMES SALMONELLA TYPHIMURIUM, Strain/Indicator: TA1535, Metabolic Activation: RAT, LIVER, S-9, AROCLOR 1254, Method: FLASK VAPORIZATION)?
A: The mutagenic call was “active; positive”.

Q: How did the mutagenic call [1] turn out when O=C(CBr)c1ccc(-c2ccccc2)cc1 was run?
A: Its mutagenic call is “inactive; negative”.

Q: What about the mutagenic call (Test System: AMES SALMONELLA TYPHIMURIUM, Strain/Indicator: TA98, Metabolic Activation: RAT, LIVER, S-9, PCB, Method: PREINCUBATION) of the same molecule?
A: The mutagenic call was “inactive; negative”.

Q: And the mutagenic call (Test System: AMES SALMONELLA TYPHIMURIUM, Strain/Indicator: TA100, Metabolic Activation: RAT, LIVER, S-9, PCB, Method: PREINCUBATION)?
A: Its mutagenic call is “inactive; negative”.

Q: What about the mutagenic call (Test System: E. COLI, Strain/Indicator: WP2 UVRA, Metabolic Activation: NONE, Method: PREINCUBATION) of the same molecule?
A: The mutagenic call was “inactive; negative”.
